Results taken from patent US11390602B2, “N-alkyl-N-cyanoalkylbenzamide compound and use thereof” (JIANGSU FLAG CHEMICAL INDUSTRY CO., LTD., priority 2017, dated 2022).
Where two headings read alike, the source gives them in different places.

Tested on: Plutella xylostella
Test: Insecticidal effect on Plutella xylostella (leaf disc immersion)
Type: in vivo
Details: foliar, 72 h, read-out: insecticidal activity on Plutella xylostella (mortality %)
Procedure: The test reagents were all dissolved in a mixed solvent of acetone:N′N′-dimethylcarboxamide (1:1) to give a 1000 mg/L solution. 1% Tween-80 was added as an emulsifier to each solution. These solutions were then diluted with 1% Tween-20 solution in water to give desired concentrations of test solutions. An aqueous solution containing 1% Tween-20 was used as a control.
Third instar larvae of Plutella xylostella were used. Cabbages were washed, air dried, punched into leaf discs, immersed in reagent solutions for 10 sec, taken out, naturally dried and then placed in a Petri dish. 10 third-instar larvae of Plutella xylostella were inoculated to each Petri dish, and three replicates were set. The number of deaths in 3 days was investigated, and the mortality was calculated.

[1] = concentration 0.05 ppm, third instar larvae, 3 days
[2] = concentration 0.5 ppm, third instar larvae, 3 days

SMILES | mortality at 0.01 ppm [%] | mortality at 0.05 ppm [%] | mortality at 0.5 ppm [%] | mortality at 0.05 ppm [1] [%] | mortality at 0.5 ppm [2] [%] | mortality at 0.01 ppm (concentration 0.01 ppm, third instar larvae, 3 days) [%]
CN(C(=O)c1cc(Cl)cc(Cl)c1NC(=O)c1cc(Br)nn1-c1ncccc1Cl)C(C)(C)C#N [Compound 1.15, N-(6-N-((2-cyanopropan-2-yl)-N-methylcarbamoyl)-2,4-dichlorophenyl)-1-(3-chloropyridin-2-yl)-3-bromo-1H-pyrazol-5-carboxamide] | 66.7 | 86.7 | 100 | – | – | –
Cc1cc(Cl)cc(C(=O)NC(C)(C)C#N)c1NC(=O)c1cc(Br)nn1-c1ncccc1Cl [KC1] | – | – | – | 45.7 | 71.9 | –
CC(C)(C#N)NC(=O)c1cc(Cl)cc(Cl)c1NC(=O)c1cc(Br)nn1-c1ncccc1Cl [KC2] | – | – | – | 51.4 | 88.2 | 28.1
